{"source": "patent US20050245594A1", "about": "“Dermal delivery of anti-pain agents and methods useful thereof” (priority 2001, published 2005)", "key": {"[1]": {"assay": "Crossover PK study: plasma sumatriptan by LC/MS/MS after ID/junctional vs SC administration (Tmax, Cmax, AUC, relative F)", "type": "in vivo, Yucatan miniswine", "settings": "for rel. F 10 min / rel. F Total: compared to SC; for Cmax / AUC: minipig, plasma; for AUC: read-out: AUC 10 mm. (converted)", "protocol": "Percent (%) relative Bioavailability (F) for each dosing condition was calculated compared to the SC condition: [formula]"}, "[2]": {"system": "Yorkshire Swine skin (injection site)", "settings": "pig, in vivo", "protocol": "A total of 12 Yorkshire Swine (Archer Farms) were used. Each pig received one injection according to a randomization schedule (RS) once a day for a total of nine injections. Animals were not exposed to all possible injection combinations, because of the incomplete block design.\nThese skin sites were observed immediately upon removal of the device and at 30 minutes, 1, 2, 3, 4, 6, 8 and 24 hours and skin effects documented using the Draize Dermal Irritation method. […] Responder pigs were assigned to the following pig numbers on the randomization table in the following order: 1, 4, 2, 5, 3, and 6.\nSyringe based microneedle systems: 30 gauge 1.5 mm ID needle with skin penetration limiter (Lot #E216801); 2 mm ID needle with limiter incorporating a 30 gauge ½ inch length needle with an ID bevel and a skin penetration limiter to allow 2 mm penetration; 3 mm needle with limiter incorporating a 30 gauge ½ inch length needle with a bevel and a skin penetration limiter to allow 3 mm penetration. All syringe based devices were connected to an accurate leur lock (LL) volumetric syringe for measuring the dose volume, and were administered in a bolus injection fashion using manual control of delivery rate.\nDuring the delivery period, the microneedle array is held in place flat against the skin via an integral adhesive ring incorporated on the hub. The catheter hub is also connected via an integral length of medical grade tubing to a Leur inlet, which is in turn connected to a 1 ml syringe as the drug reservoir. The flow rate and delivery volume from the syringe are controlled via a programmable, highly accurate volumetric syringe pump.\nPigs were fasted for 12-18 hours prior to anesthesia. A mixture of Rompun® (2 mg/kg), Telazol® (4 mg/kg), and Ketamine (2 mg/kg) were given IM to sedate. Atropine (0.02 mg/kg) was given IM directly after sedation to avoid excessive salivation. Swine were masked down with Isoflurane if needed during the injection time.\nTREATMENT DAY 1: The hair on both flanks of the pig were clipped and the skin wiped clean with chlorohexaderm scrub and alcohol. A clean, unblemished area was selected. Injection was performed according to a randomization schedule.\nFor 34-gauge catheter set devices, a BD 1 mL LL syringe and a Harvard syringe pump were used to control flow rate (100 μl/min). Devices remained in place for 1 minute following the injection. For 30-gauge syringe system, injections were performed over 50-60 seconds using manual rate control. After injection, photos were taken of skin effects. The skin site was marked with a permanent skin marker for later identification of site. Pigs were recovered in their runs.\nTREATMENT DAY 2-9: All steps from Day 1 were repeated on alternate flanks of each pig following a pre-assigned randomization schedule.\nThe model included a pig effect, time effect, gauge, depth and solution main effects as well as all two-way interactions."}, "[3]": {"settings": "Yucatan miniswine, 1 × 1.5 mm × 30 g, 0 mg/ml"}, "[4]": {"settings": "Yucatan miniswine, 1 × 2 mm × 30 g, 30 mg/ml"}, "[5]": {"settings": "Yucatan miniswine, 1 × 3 mm × 30 g, 30 mg/ml"}, "[6]": {"settings": "Yucatan miniswine, 3 × 2 mm × 34 g, 30 mg/ml"}, "[7]": {"settings": "Yucatan miniswine, sc, 12 mg/ml"}, "[8]": {"settings": "Yucatan, 3 × 3 mm × 34 g, 12 mg/ml"}}, "note": "Read-outs that look alike come from different tables or passages of the source."}
{"smiles": "CNS(=O)(=O)Cc1ccc2[nH]cc(CCN(C)C)c2c1", "note": "[sumatriptan, 3-[2-(dimethylamino)ethyl]-N-methyl-indole-5-methanesulfonamide]", "values": [{"measurement": "AUC total", "setting": "[1]; 1 × 1.5 mm × 30 g, 0 mg/ml", "result": 27696.167, "unit": "ng·min/mL"}, {"measurement": "rel. F 10 min", "setting": "[1]; 1 × 1.5 mm × 30 g, 0 mg/ml", "result": 186.777, "unit": "%"}, {"measurement": "rel. F Total", "setting": "[1]; 1 × 1.5 mm × 30 g, 0 mg/ml", "result": 117.806, "unit": "%"}, {"measurement": "AUC total", "setting": "[1]; 1 × 2 mm × 30 g, 30 mg/ml", "result": 23548.167, "unit": "ng·min/mL"}, {"measurement": "rel. F 10 min", "setting": "[1]; 1 × 2 mm × 30 g, 30 mg/ml", "result": 165.993, "unit": "%"}, {"measurement": "rel. F Total", "setting": "[1]; 1 × 2 mm × 30 g, 30 mg/ml", "result": 100.162, "unit": "%"}, {"measurement": "AUC total", "setting": "[1]; 1 × 3 mm × 30 g, 30 mg/ml", "result": 27335.167, "unit": "ng·min/mL"}, {"measurement": "rel. F 10 min", "setting": "[1]; 1 × 3 mm × 30 g, 30 mg/ml", "result": 190.490, "unit": "%"}, {"measurement": "rel. F Total", "setting": "[1]; 1 × 3 mm × 30 g, 30 mg/ml", "result": 116.270, "unit": "%"}, {"measurement": "AUC total", "setting": "[1]; 3 × 2 mm × 34 g, 30 mg/ml", "result": 30006.000, "unit": "ng·min/mL"}, {"measurement": "rel. F 10 min", "setting": "[1]; 3 × 2 mm × 34 g, 30 mg/ml", "result": 153.272, "unit": "%"}, {"measurement": "rel. F Total", "setting": "[1]; 3 × 2 mm × 34 g, 30 mg/ml", "result": 127.631, "unit": "%"}, {"measurement": "AUC total", "setting": "[1]; 3 × 3 mm × 34 g, 12 mg/ml", "result": 25642.833, "unit": "ng·min/mL"}, {"measurement": "rel. F 10 min", "setting": "[1]; 3 × 3 mm × 34 g, 12 mg/ml", "result": 116.434, "unit": "%"}, {"measurement": "rel. F Total", "setting": "[1]; 3 × 3 mm × 34 g, 12 mg/ml", "result": 109.072, "unit": "%"}, {"measurement": "AUC total", "setting": "[1]; 3 × 3 mm × 34 g, 30 mg/ml", "result": 25947.667, "unit": "ng·min/mL"}, {"measurement": "rel. F 10 min", "setting": "[1]; 3 × 3 mm × 34 g, 30 mg/ml", "result": 117.806, "unit": "%"}, {"measurement": "rel. F Total", "setting": "[1]; 3 × 3 mm × 34 g, 30 mg/ml", "result": 110.369, "unit": "%"}, {"measurement": "AUC total", "setting": "[1]; IV, 12 mg/ml", "result": 16626.000, "unit": "ng·min/mL"}, {"measurement": "rel. F 10 min", "setting": "[1]; IV, 12 mg/ml", "result": 131.820, "unit": "%"}, {"measurement": "rel. F Total", "setting": "[1]; IV, 12 mg/ml", "result": 70.719, "unit": "%"}, {"measurement": "Maximum concentration levels at early time points", "setting": "[1]; Intradermal and/or junctional administration vs SC", "result": "elevated"}, {"measurement": "AUC total", "setting": "[1]; SC, 12 mg/ml", "result": 23510.000, "unit": "ng·min/mL"}, {"measurement": "rel. F 10 min", "setting": "[1]; SC, 12 mg/ml", "result": 100.000, "unit": "%"}, {"measurement": "rel. F Total", "setting": "[1]; SC, 12 mg/ml", "result": 100.000, "unit": "%"}, {"measurement": "Cmax", "setting": "[1]; [3]", "result": 824, "unit": "ng/mL"}, {"measurement": "AUC", "setting": "[1]; [3]", "result": 84.7, "unit": "ng·h/mL"}, {"measurement": "Cmax", "setting": "[1]; [4]", "result": 849, "unit": "ng/mL"}, {"measurement": "AUC", "setting": "[1]; [4]", "result": 75.2, "unit": "ng·h/mL"}, {"measurement": "Cmax", "setting": "[1]; [5]", "result": 837, "unit": "ng/mL"}, {"measurement": "AUC", "setting": "[1]; [5]", "result": 86.4, "unit": "ng·h/mL"}, {"measurement": "Cmax", "setting": "[1]; [6]", "result": 726, "unit": "ng/mL"}, {"measurement": "AUC", "setting": "[1]; [6]", "result": 69.5, "unit": "ng·h/mL"}, {"measurement": "Cmax", "setting": "[1]; Yucatan miniswine, 3 × 3 mm × 34 g, 30 mg/ml", "result": 649, "unit": "ng/mL"}, {"measurement": "Cmax", "setting": "[1]; [7]", "result": 527, "unit": "ng/mL"}, {"measurement": "AUC", "setting": "[1]; [7]", "result": 45.3, "unit": "ng·h/mL"}, {"measurement": "Cmax", "setting": "[1]; [8]", "result": 706, "unit": "ng/mL"}, {"measurement": "AUC", "setting": "[1]; [8]", "result": 52.8, "unit": "ng·h/mL"}, {"measurement": "AUC", "setting": "[1]; Yucatan, 3 × 3 mm × 34 g, 30 mg/ml", "result": 53.4, "unit": "ng·h/mL"}, {"measurement": "Cmax", "setting": "[1]; Yucatan, iv, 12 mg/ml", "result": 661, "unit": "ng/mL"}, {"measurement": "AUC", "setting": "[1]; Yucatan, iv, 12 mg/ml", "result": 59.8, "unit": "ng·h/mL"}, {"measurement": "Erythema Mean", "setting": "[2]; 4 h", "result": 0.1}, {"measurement": "Erythema Median", "setting": "[2]; 4 h", "result": 0.2}, {"measurement": "Edema Median", "setting": "[2]; 6 h", "result": 0}, {"measurement": "Edema Median", "setting": "[2]; 8 h", "result": 0}, {"measurement": "Edema Mean", "setting": "[2]; 24 h", "result": 0.0}, {"measurement": "Edema Median", "setting": "[2]; 24 h", "result": 0}, {"measurement": "Erythema Mean", "setting": "[2]; 24 h", "result": 0.0}, {"measurement": "Erythema Median", "setting": "[2]; 24 h", "result": 0.0}]}
